According to patent publication US9128100B2, “Non-invasive diagnostic method for the evaluation of intestinal lactase deficiency (hypolactasia)” (Venter Pharma, S.L., priority 2012, dated 2015):
Values joined by “and” are separate entries in the source; they are usually repeats but may differ in a detail not shown here. Equal entries are not always repeated.

Columns and labels:
intestinal lactase [1] = target: T1, intestinal lactase (Homo sapiens, UniProt P09848); experiment: Urinary excretion of xylose after single oral doses of 4-GX in healthy volunteers; assay type: in vivo
T1 construct: after its oral administration it is hydrolysed by the intestinal mucosa enzyme; from tissue; host or cells: small-intestinal mucosa (enterocyte brush border) of living human volunteers and patients, in vivo
Protocol: Two groups of subjects were selected. […] Firstly, the lowest suitable oral dose of 4-GX administered to healthy volunteers was determined that enabled reliable detection (in terms of accuracy and reproducibility) of xylose levels in urine and blood via the analytical method to be used. In addition, the tolerance of these subjects to the various doses of 4-GX used in the test and the pharmacokinetics for each dose administered were analysed, both in urine and blood. The doses of 4-GX used were: 0.125 g, 0.250 g, 0.5 g, 1 g, 3 g and 6 g in addition to placebo in 12 healthy volunteers with washout period between doses of between three and seven days. It should be appreciated that the 4-GX doses can include small quantities of water which remain subsequent to the drying process of the 4-GX product. For example, the 4-GX product can contain about 8 wt % to about 12 wt %, most likely about 10 wt % water, based on the total weight of the product. […] In each study period, an ascending dose of 4-GX was administered and the serum and urine concentrations of xylose were measured at various times up to 8 hours following the administration of the drug.
The main measured variable was the quantity of xylose in urine collected following oral administration of 4-GX at the following times: basal, 0-1 h, 1-2 h, 2-3 h, 3-4 h, 4-5 h, 5-6 h, 6-7 h and 7-8 h. […]

intestinal lactase [2] = target: T1, intestinal lactase; experiment: Lower limits of normal (cut-off points) of xylose in urine and blood of healthy controls after 4-GX; assay type: in vivo; conditions: mean minus 1.96 SD of healthy controls
Description: The indicator of the lower limit of normal was taken to be the difference between the average xylose concentrations in blood and/or the difference between the average total amounts of xylose excreted in the urine, and 1.96 times the standard deviation.
The data obtained with the 4-GX administration test in the healthy control group was used to determine the lower limits of normal of xylose in urine and blood (cut-off points). The cut-off points for the 4-GX test in urine were obtained for times of 4 hours and 5 hours because, as already seen in example 2, these times are the best for determining the amount of xylose excreted in urine following 4-GX administration and performing a reliable diagnosis of lactase deficiency. Similarly, the cut-off points for the determination of the blood xylose concentration following 4-GX administration were obtained for the time of 90 minutes following ingestion of the disaccharide. The difference between the average xylose concentration (in blood and the total quantity of xylose excreted in the urine) and 1.96 times the standard deviation was used for the lower limit of normal indicator. The lower limit of xylose accumulated in 4-hour urine was 27.58 mg; xylose accumulated in 5-hour urine was 37.87 mg and the increase in the concentration of plasma xylose after 90 minutes following ingestion of the product, compared to basal blood, was 0.97 mg/dL.

T1 sequence (P09848 869-1927): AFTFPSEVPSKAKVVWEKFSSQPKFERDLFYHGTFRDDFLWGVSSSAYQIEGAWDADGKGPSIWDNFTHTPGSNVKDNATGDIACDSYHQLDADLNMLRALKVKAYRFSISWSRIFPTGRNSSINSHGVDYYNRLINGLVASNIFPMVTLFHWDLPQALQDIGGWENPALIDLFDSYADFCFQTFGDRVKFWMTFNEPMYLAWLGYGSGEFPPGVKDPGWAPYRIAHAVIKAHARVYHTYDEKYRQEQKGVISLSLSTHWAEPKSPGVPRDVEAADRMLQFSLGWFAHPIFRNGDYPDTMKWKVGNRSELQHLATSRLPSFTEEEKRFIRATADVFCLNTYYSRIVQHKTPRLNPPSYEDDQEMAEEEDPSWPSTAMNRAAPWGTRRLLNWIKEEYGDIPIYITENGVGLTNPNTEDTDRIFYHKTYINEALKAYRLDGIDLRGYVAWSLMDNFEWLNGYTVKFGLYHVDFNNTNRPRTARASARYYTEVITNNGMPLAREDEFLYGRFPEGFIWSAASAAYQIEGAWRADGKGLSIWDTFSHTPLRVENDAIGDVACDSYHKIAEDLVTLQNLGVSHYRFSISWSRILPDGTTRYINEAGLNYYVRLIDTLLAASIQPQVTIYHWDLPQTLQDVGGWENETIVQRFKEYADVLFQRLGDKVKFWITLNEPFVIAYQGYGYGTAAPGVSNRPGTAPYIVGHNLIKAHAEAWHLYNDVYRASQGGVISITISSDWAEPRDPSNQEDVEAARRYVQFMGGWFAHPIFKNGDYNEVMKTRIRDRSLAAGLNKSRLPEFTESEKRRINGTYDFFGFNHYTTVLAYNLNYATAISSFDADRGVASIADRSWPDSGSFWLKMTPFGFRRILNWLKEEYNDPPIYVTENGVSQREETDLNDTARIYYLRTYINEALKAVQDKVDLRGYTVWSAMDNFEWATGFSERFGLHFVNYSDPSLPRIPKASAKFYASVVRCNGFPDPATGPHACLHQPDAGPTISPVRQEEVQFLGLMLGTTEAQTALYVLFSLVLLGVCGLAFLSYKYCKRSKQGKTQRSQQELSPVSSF

O=C[C@H](O)[C@@H](O)[C@@H](CO)O[C@@H]1O[C@H](CO)[C@H](O)[C@H](O)[C@H]1O [4-GX, 4-O-β-galactopyranosyl-D-xylose]
lowest dose of 4-GX for which excretion of xylose in urine can be distinguished from placebo (intestinal lactase [1]): 0.5 g | Cut-off point, total xylose in 4-hour urine (intestinal lactase [2]; 4-GX 0.125 g): 11.88 mg | Cut-off point, total xylose in 5-hour urine (intestinal lactase [2]; 4-GX 0.125 g): 16.72 mg | Cut-off point, total xylose in 4-hour urine (intestinal lactase [2]; 4-GX 0.250 g): 20.62 mg | Cut-off point, total xylose in 5-hour urine (intestinal lactase [2]; 4-GX 0.250 g): 28.08 mg | Cut-off point, total xylose in 4-hour urine (intestinal lactase [2]; 4-GX 0.5 g): 27.58 mg | Cut-off point, total xylose in 5-hour urine (intestinal lactase [2]; 4-GX 0.5 g): 37.87 mg | Cut-off point, xylose concentration in 90-min blood (increase over basal) (intestinal lactase [2]; 4-GX 0.5 g): 0.41 mg/dL | Cut-off point, total xylose in 4-hour urine (intestinal lactase [2]; 4-GX 1 g): 33.04 mg | Cut-off point, total xylose in 5-hour urine (intestinal lactase [2]; 4-GX 1 g): 41.35 mg | Cut-off point, xylose concentration in 90-min blood (increase over basal) (intestinal lactase [2]; 4-GX 1 g): 0.53 mg/dL | Cut-off point, total xylose in 4-hour urine (intestinal lactase [2]; 4-GX 3 g): 45.58 mg | Cut-off point, total xylose in 5-hour urine (intestinal lactase [2]; 4-GX 3 g): 69.57 mg and 69.75 mg | Cut-off point, xylose concentration in 90-min blood (increase over basal) (intestinal lactase [2]; 4-GX 3 g): 0.97 mg/dL | Cut-off point, total xylose in 4-hour urine (intestinal lactase [2]; 4-GX 6 g): 87.96 mg | Cut-off point, total xylose in 5-hour urine (intestinal lactase [2]; 4-GX 6 g): 110.12 mg | Cut-off point, xylose concentration in 90-min blood (increase over basal) (intestinal lactase [2]; 4-GX 6 g): 1.44 mg/dL
